Values of other authors in patent US7514592B2, “Inducible heart attack animal model” (Massachusetts Institute of Technology, priority 2004, dated 2009).

Tested on: SR-BI knockout females
Conditions: homozygous SR-BI knockout dams (infertile); administered during the breeding protocol

## CC(C)(Sc1cc(C(C)(C)C)c(O)c(C(C)(C)C)c1)Sc1cc(C(C)(C)C)c(O)c(C(C)(C)C)c1 [probucol]
  fertility in SR-BI knockout females: restore fertility
